We go through four compounds from the NIST ThermoML archive (doi:10.1021/acs.jced.7b00452).

The structures appear in SMILES notation. Numbers after ± are expanded uncertainties.

As usually defined, the speed of sound is how fast a sound wave travels through the sample. In general, mass density refers to mass per unit of volume.

Series [1] can be described thus: mn = molality of the nth substance listed, in mol/kg. The following applies: 101.3 kPa, Liquid; for speed of sound: Single path-length method; for mass density: Vibrating tube method.
For series [2] the following is noted: 318.15 K; 101.3 kPa; Liquid; Single path-length method.

For `C[C@H](N)C(=O)O` [(S)-2-aminopropanoic acid] + O, the speed of sound amounted to 1498.8 ± 1 m/s in series [1] (298.15 K, m1 = 0.025); 1500 ± 1 m/s in series [1] (298.15 K, m1 = 0.05); 1521.6 ± 1 m/s in series [1] (308.15 K, m1 = 0.025); 1522.7 ± 1 m/s in series [1] (308.15 K, m1 = 0.05); 1538 ± 1 m/s in series [1] (318.15 K, m1 = 0.025); 1539.2 ± 1 m/s in series [1] (318.15 K, m1 = 0.05). Moreover, the mass density stood at 997.765 ± 0.1 kg/m3 in series [1] (298.15 K, m1 = 0.025); 998.484 ± 0.1 kg/m3 in series [1] (298.15 K, m1 = 0.05); 994.741 ± 0.1 kg/m3 in series [1] (308.15 K, m1 = 0.025); 995.466 ± 0.1 kg/m3 in series [1] (308.15 K, m1 = 0.05); 990.91 ± 0.11 kg/m3 in series [1] (318.15 K, m1 = 0.025); 991.637 ± 0.11 kg/m3 in series [1] (318.15 K, m1 = 0.05).

On to `CC(C)[C@H](N)C(=O)O` [L-valine] + O, for which the speed of sound in series [1] (298.15 K, m1 = 0.025) was determined as 1498.9 ± 1 m/s; in series [1] (298.15 K, m1 = 0.05), 1501.7 ± 1 m/s; in series [1] (308.15 K, m1 = 0.025), 1521.7 ± 1 m/s; in series [1] (308.15 K, m1 = 0.05), 1524.2 ± 1 m/s; in series [1] (318.15 K, m1 = 0.025), 1537.7 ± 1 m/s; in series [1] (318.15 K, m1 = 0.05), 1540.2 ± 1 m/s. Besides, the mass density is on record as 997.706 ± 0.1 kg/m3 in series [1] (298.15 K, m1 = 0.025); 998.248 ± 0.1 kg/m3 in series [1] (298.15 K, m1 = 0.05); 994.661 ± 0.1 kg/m3 in series [1] (308.15 K, m1 = 0.025); 995 ± 0.1 kg/m3 in series [1] (308.15 K, m1 = 0.05); 990.798 ± 0.1 kg/m3 in series [1] (318.15 K, m1 = 0.025); 991.103 ± 0.1 kg/m3 in series [1] (318.15 K, m1 = 0.05).

As for `O` [water], the speed of sound in series [2] was determined as 1536.7 ± 1 m/s.

Turning to `O` [water] + CCN(CC)CCNC(=O)c1ccc(N)cc1.Cl, the speed of sound in series [1] (318.15 K, m2 = 0) is on record as 1536.7 ± 1 m/s.
